How the values were obtained:
Format in all cases: in vivo
Bemisia tabaci = assay: Example 32: bell peppers treated against Bemisia tabaci; conditions: larvae on leaves, % a.i.: imidacloprid 0.02, I-9, I-2, I-11 0.0144
Experimental: In three replications, plots of a size of 10 m^2 with bell peppers of the cultivar “Italiano” are treated against Bemisia tabaci. The application is carried out using a motor-operated knapsack sprayer. Here, the active compounds Example (I-9) (240 SC), Example (I-2) (60 SC) and Example (I-11) (60 SC) and the commercial standard imidacloprid (200 SL) are applied at the stated application rates. Three applications at an interval of 14 or 15 days are carried out, at an application rate of 1000 or 1100 l of water/ha.
Evaluation is carried out 7, 14 and 22 days after the second treatment by rating the kill of the animals (larvae) on the leaves.

Bemisia argentifolii = assay: Example 35: aubergines (F 100) treated against Bemisia argentifolii; conditions: 7 d after last of three treatments, nymphs on leaves, % a.i.: imidacloprid 0.014, I-9, I-2, I-11 0.0144
Experimental: In three replications, plots of a size of 10 m^2 with aubergines of the cultivar “F 100” are treated against Bemisia argentifolii. The application is carried out using a knapsack sprayer operated with pressurized air. Here, the active compounds Example (I-9) (60 SC), Example (I-2) (60 SC) and Example (I-11) (60 SC) and the commercial standard imidacloprid (70 WG) are tested at the stated application rates. Three applications are carried out, at an interval or 7 or 8 days. The application rate is 1000 l of water/ha.
Evaluation is carried out 7 days after the last treatment by rating the kill of the nymphs on the leaves.

Macrosiphum euphorbiae = assay: Example 43: aubergines treated against Macrosiphum euphorbiae; conditions: nymphs on leaves, % a.i.: imidacloprid 0.014, I-9, I-2, I-11 0.0144
Experimental: In three replications, plots of a size of 10 m^2 with aubergines of the cultivar “F 100” are treated against Macrosiphum euphorbiae. The application is carried out using a knapsack sprayer operated with pressurized air. Here, the active compounds Example (I-9) (60 SC), Example (I-2) (60 SC) and Example (I-11) (60 SC) and the commercial standard imidacloprid (70 WG) are tested at the stated application rates. Three applications are carried out, at an interval of 7 or 8 days. The application rate is 1000 l of water/ha.
Evaluation is carried out 7 and 14 days after the second treatment by rating the kill of the nymphs on the leaves.

Pulvinaria aurantii = assay: Example 11: satsuma trees treated against Pulvinaria aurantii; conditions: 41 days after treatment; live animals counted, Henderson and Tilton; satsuma tree; % a.i.: buprofezin 0.025, I-4 0.0144
Experimental: In three replications, in each case one about 4-year-old satsuma tree of the cultivar “Nankan 20” is treated against Pulvinaria aurantii. Here, the active compound Example (I-4) (240 SC) in a tank mix with 0.2% of rapeseed oil methyl ester (500 EW) at the stated application rate is tested against the commercial standard buprofezin at the stated application rate. The application is carried out using a motor-operated knapsack sprayer. Here, each plant is treated with 400 ml of spray liquor.
(§1) Evaluation is carried out before and 41 days after the treatment by counting the live animals. The efficacy in percent is then calculated according to Henderson and Tilton.

Ceroplastes rubens = assay: Example 12: satsuma trees treated against Ceroplastes rubens; conditions: 41 days after treatment; live animals counted, Henderson and Tilton; satsuma tree; % a.i.: buprofezin 0.025, I-4 0.0072
Experimental: In three replications, in each case one about 4-year-old satsuma tree of the cultivar “Nankan 20” is treated against Ceroplastes rubens. Here, the active compound Example (I-4) (240 SC) in a tank mix with 0.1% of rapeseed oil methyl ester (500 EW) at the stated application rate is tested against the commercial standard buprofezin (25 WP) at the stated application rate. The application is carried out using a motor-operated knapsack sprayer. Here, treatment is carried out using an application rate of 400 l of water/ha.
as §1

Saissetia oleae [1] = assay: Example 13: orange trees treated against Saissetia oleae; conditions: nymphs on leaves, g a.i./ha/m crown height: buprofezin 500, I-4 72, I-8 30
Experimental: In three replications, in each case two about 8-year-old orange trees are treated against Saissetia oleae. Here, the active compounds Example (I-4) (240 SC) and Example (I-8) (250 SC) in a tank mix with 0.2% a.i. of rapeseed oil methyl ester (500 EW) at the stated application rate are tested against the commercial standard buprofezin in a tank mix with 0.4% a.i. of Oliocin (800 EW) at the stated application rate. The application is carried out using a motor-operated knapsack sprayer. The application rate is 3000 l of water/ha. Two treatments are carried out, at an interval of 29 days.
Evaluation is carried out 24 and 44 days after the last treatment by rating the kill of the nymphs on the leaves.

[2] = system: Selenaspidius articulatus; assay: Example 19: orange trees treated against Selenaspidius articulatus; conditions: 100 d after treatment, on leaves, % a.i.: methidathion 0.05, I-9 0.0288, I-4 0.0144
Experimental: In three replications, 3-year-old orange trees of the cultivar “Pera natal” are treated against Selenaspidius articulatus. The application is carried out using a motor-operated knapsack sprayer. Here, the active compounds Example (I-9) (240 SC) and Example (I-4) (240 SC) at the stated application rate are tested against the standard methidathion (400 EC) in the stated amounts, applied once. The application rate is 3.3 l of water per tree.
Evaluation is carried out 100 days after the treatment by rating the kill on the leaves.

Orthezia praelonga = assay: Example 25: orange trees treated against Orthezia praelonga; conditions: population on leaves, % a.i.: methidathion 0.05, I-4 0.0144, I-9 0.0144
Experimental: In two replications, two about 7-year-old orange trees of the cultivar “Pera Rio” are treated against Orthezia praelonga. Here, the active compounds Example (I-4) (240 SC) and Example (I-9) (240 SC), in a tank mix with 0.1% a.i. of Renex, are tested against the commercial standard Methidathion (400 EC), at the stated application rates. The application is carried out using a knapsack sprayer operated with pressurized air. Evaluation is carried out 6 and 16 days after the treatment by rating the kill of the population on the leaves.

Saissetia oleae [3] = assay: Example 14: orange trees (Navelina) treated against Saissetia oleae; conditions: 120 d after treatment, kill on branches, % a.i.: Dursban 0.096, I-4 0.012, I-9 0.0054, pyriproxyfen 0.005
Experimental: In three replications, orange trees of the cultivar “Navelina” are treated against Saissetia oleae. Here, the active compounds Example (I-4) (240 SC) and Example (I-9) (240 SC) in a tank mix with 0.1% of rapeseed oil methyl ester (500 EW) at the stated application rate are tested against the commercial standards Dursban (480 EC) and pyriproxyfen (100 EC) at the stated application rate. The application is carried out using a motor-operated knapsack sprayer. The application rate is 3200 l of water/ha.
Evaluation is carried out 120 days after the treatment by rating the kill of the animals on the branches.

Lepidosaphes beckii = assay: Example 18: citrus trees treated against Lepidosaphes beckii; conditions: 140 days after treatment, larvae on fruits, g a.i./ha/m crown height: pyriproxyfen 50, I-4 48
Experimental: In three replications, in plots of a size of about 20 m^2, citrus trees of the cultivar “Oro Nules” are treated against Lepidosaphes beckii. The application is carried out using a high-pressure sprayer. Here, the active compound Example (I-4) (240 SC) in a tank mix with 0.1% a.i. of rapeseed oil methyl ester (500 EW) is tested against the commercial standard pyriproxyfen (100 EC), at the stated application rates. The application rate is 2500 l of water/ha.
Evaluation is carried out 140 days after the treatment by rating the kill of the larvae on the fruits.

Parlatoria pergandei = assay: Example 27 / 18a: orange trees treated against Parlatoria pergandei; conditions: 73 d after last of two treatments, on fruits, % a.i.: pyriproxyfen 0.005, I-9 0.0096
Experimental: The evaluation for Example 18a against Parlatoria pergandei is carried out as part of the test as described in Example 27 and is listed separately in Example 27.
(§2) In three replications, orange trees of the cultivar “Navelina” are treated against Parlatoria pergandei and Pseudococcus citri. Two applications are carried out at an interval of 77 days using a motor-operated knapsack sprayer. Here, the active compound Example (I-9) (240 SC), in a tank mix with 0.1% a.i. of rapeseed oil methyl ester (500 EW), at the stated amount, is tested against the commercial standard pyriproxyfen (100 EC), at the stated amounts. The application rate is 3000 l of water/ha.
(§3) Evaluation is carried out 56 days or 73 days after the last treatment by rating the kill in percent on the fruits.

Pseudococcus citri = assay: Example 27: orange trees treated against Pseudococcus citri; conditions: 56 d after last of two treatments, on fruits, % a.i.: pyriproxyfen 0.005, I-9 0.0096
Experimental: as §2, §3

`CCCC(=O)OC1=C(c2cc(C)c(C)cc2C)C(=O)NC12CCC(OCC)CC2` (centres unmarked) [Example (I-11)] was tested, and the “Kill (%) 7 d” value (Bemisia tabaci; 7 d after second treatment) was 85.4%, the “Kill (%) 14 d” value (Bemisia tabaci; 14 d after second treatment) was 93.3% and the “Kill (%) 22 d” value (Bemisia tabaci; 22 d after second treatment) was 91.3%. The “Kill (%) 7 d” value (Bemisia argentifolii) was 94%, the “Kill (%) 7 d” value (Macrosiphum euphorbiae; 7 d after second treatment) was 98% and the “Kill (%) 14 d” value (Macrosiphum euphorbiae; 14 d after second treatment) was 99%.
`CC(C)N1C(=O)N(c2ccccc2)CS/C1=N\C(C)(C)C` [buprofezin, reference compound] was tested, and the “Effect (%)” value (Pulvinaria aurantii) was 68%, the “Effect (%)” value (Ceroplastes rubens) was 50% and the “Kill (%) 24 d” value (Saissetia oleae [1]; 24 d after last of two treatments) was 33.5%. The “Kill (%) 44 d” value (Saissetia oleae [1]; 44 d after last of two treatments) was 50.5%.
With `COc1nn(CSP(=S)(OC)OC)c(=O)s1` [methidathion, reference compound] the “Kill (%) 100 d” value [2] was 77%, the “Kill (%) 6 d” value (Orthezia praelonga; 6 d after treatment) was 91% and the “Kill (%) 16 d” value (Orthezia praelonga; 16 d after treatment) was 61%.
`CC(COc1ccc(Oc2ccccc2)cc1)Oc1ccccn1` (centres unmarked) [pyriproxyfen, reference compound] was tested, and the “Effect (%) 120 d” value (Saissetia oleae [3]) was 100%, the “Kill (%) 140 days” value (Lepidosaphes beckii) was 100% and the “Kill (%) 73 d” value (Parlatoria pergandei) was 97.5%. The “Kill (%) 56 d” value (Pseudococcus citri) was 28.8%.
